Key:
human STING (hSTING) = molecular target: T1, human STING (hSTING) (Homo sapiens, UniProt Q86WV6); assay: Inhibition test of intracellular human STING (hSTING) pathway using SEAP reporter cells (HEK-Blue ISG), stimulation with Compound 3; type: cell-based; parameters: hSTING inhibitory activity: scale not given here; settings: Compound 3 10 nM stimulation, 21 hours
T1 construct: host or cells: HEK-Blue ISG cells (HEK293-derived SEAP reporter line)
Outline: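 IC50 derived by regressing inhibition rate against log compound concentration (0.1 to 10 μM final, added 1 h before agonist), with 0% and 100% set by wells without and with 10 nM Compound 3. SEAP colour reaction read after 21 h stimulation of HEK-Blue ISG reporter cells.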

[1] = system: STING activation (IFN-β production in THP-1 cells); assay: Human IFN-β production inhibition test by cGAMP stimulation in THP-1 cells; type: cell-based; parameters: IFN-β bioinhibitory activity: scale not given here; settings: 2'3'-cGAMP transfection, 18 hours, IFN-β ELISA; for IC50: Homo sapiens, read-out: IFN-β bioinhibitory activity
Outline: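 PMA-primed (100 nM, overnight) THP-1 cells pretreated 1 h with compound at 0.001 to 1 μM (0.1% DMSO), then transfected with 0.12 μg/well 2′3′-cGAMP and cultured 18 hours. Supernatant IFN-β measured by ELISA; IC50 by regression against log concentration, normalised to cGAMP-only (100%) and unstimulated (0%) controls.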

T1 sequence (Q86WV6 whole entry H232R): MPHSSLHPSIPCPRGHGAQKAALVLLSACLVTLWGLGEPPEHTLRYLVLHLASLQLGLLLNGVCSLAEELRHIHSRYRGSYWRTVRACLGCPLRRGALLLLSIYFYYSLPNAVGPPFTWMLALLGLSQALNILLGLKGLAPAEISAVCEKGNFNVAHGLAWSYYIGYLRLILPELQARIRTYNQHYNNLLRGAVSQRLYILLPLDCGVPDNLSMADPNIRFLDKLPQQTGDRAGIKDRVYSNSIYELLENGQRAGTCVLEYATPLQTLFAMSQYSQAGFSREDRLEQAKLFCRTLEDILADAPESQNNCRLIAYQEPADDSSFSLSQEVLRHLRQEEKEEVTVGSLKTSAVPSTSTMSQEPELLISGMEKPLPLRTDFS

| SMILES | hSTING inhibitory activity (human STING (hSTING)) | IFN-β bioinhibitory activity [1] | IC50 [1] [nM] |
| --- | --- | --- | --- |
| Fc1cc(C(F)(F)F)cc2nc(Nc3c[nH]c4ccc(Cl)cc34)n(C3CC3)c12 [Embodiment 233, N-(5-Chloro-1H-indol-3-yl)-1-cyclopropyl-7-fluoro-5-(trifluoromethyl)-1H-benzo[d]imidazol-2-amine] | * * * | * * |  |
| OCCn1c(Nc2c[nH]c3ccc(Cl)cc23)nc2cc(C(F)(F)F)cc(F)c21 [Embodiment 236, 2-{2-[(5-chloro-1H-indol-3-yl)amino]-7-fluoro-5-(trifluoromethyl)-1H-benzo[d]imidazol-1-yl}ethane-1-oar] | * * * | * * |  |
| CN(C)n1c(Nc2c[nH]c3ccc(Cl)cc23)nc2cc(C(F)(F)F)cc(F)c21 [Embodiment 237, N2-(5-Chloro-1H-indol-3-yl)-7-fluoro-N1,N1-dimethyl-5-(trifluoromethyl)-1H-benzo[d] imidazole-1,2-diamine] | * * * | * * |  |
| CCCn1c(Nc2c[nH]c3ccc(Cl)cc23)nc2cc(C(F)(F)F)cc(F)c21 [Embodiment 238, N-(5-Chloro-1H-indol-3-yl)-7-fluoro-1-propyl-5-(trifluoromethyl)-1H-benzo[d]imidazol-2-amine] | * * * | * * |  |
| CCn1c(Nc2c[nH]c3ccc(Cl)cc23)nc2cc(C(F)(F)F)cc(F)c21 [Embodiment 240] | * * * | * * |  |
| C#CCn1c(Nc2c[nH]c3ccc(Cl)cc23)nc2cc(C(F)(F)F)cc(F)c21 [Embodiment 241, N-(5-Chloro-1H-indol-3-yl)-7-fluoro-1-(prop-2-yn-1-yl)-5-(trifluoromethyl)-1H-benzo[d] imidazole-2-amine] | * * * | * * |  |
| CC(C)n1c(Nc2c[nH]c3ccc(Cl)cc23)nc2cc(C(F)(F)F)cc(F)c21 [Embodiment 242, N-(5-Chloro-1H-indol-3-yl)-7-fluoro-1-isopropyl-5-(trifluoromethyl)-1H-benzo[d]imidazol-2-amine] | * * * | * * |  |
| CCCn1c(Nc2c[nH]c3ccc(Cl)cc23)nc2cc(OC(F)(F)F)ccc21 [Embodiment 244, N-(5-Chloro-1H-indol-3-yl)-1-propyl-5-(trifluoromethoxy)-1H-benzo [d]imidazol-2-amine] | * * * | * * |  |
| OCCn1c(Nc2c[nH]c3ccc(Cl)cc23)nc2cc(OC(F)(F)F)ccc21 [Embodiment 245, 2-{2-[(5-Chloro-1H-indol-3-yl)amino]-5-(trifluoromethoxy)-1H-benzo[d]imidazol-1-yl}ethan-1-oar] | * * |  | 100 to 1000 |
| Cn1c(Nc2c[nH]c3ccc(Cl)cc23)nc2cc(OC(F)(F)F)ccc21 [Embodiment 246, N-(5-Chloro-1H-indol-3-yl)-1-methyl-5-(trifluoromethoxy)-1H-benzo[d]imidazol-2-amine] | * * * | * * * |  |
| FC(F)(F)c1ccc2c(c1)nc(Nc1c[nH]c3ccc(Cl)cc13)n2N1CCCC1 [Embodiment 247, N-(5-Chloro-1H-indol-3-yl)-1-(pyrrolidin-1-yl)-5-(trifluoromethyl)-1H-benzo[d]imidazol-2-amine] | * * |  | 100 to 1000 |
| Cc1cc(C(F)(F)F)cc2nc(Nc3c[nH]c4ccc(Cl)cc34)n(C)c12 [Embodiment 248, N-(5-Chloro-1H-indol-3-yl)-1,7-dimethyl-5-(trifluoromethyl)-1H-benzo[d]imidazol-2-amine] | * * * | * * |  |
| Cn1c(Nc2c[nH]c3ccc(Cl)cc23)nc2cc(C(F)(F)F)cc(Cl)c21 [Embodiment 249, 7-Chloro-N-(5-chloro-1H-indol-3-yl)-1-methyl-5-(trifluoromethyl)-1 H-benzo[d]imidazol-2-amine] | * * * | * * |  |
| Cn1c(Nc2c[nH]c3ccc(Cl)cc23)nc2cc(C(F)(F)F)c(Cl)cc21 [Embodiment 250, 6-Chloro-N-(5-chloro-1H-indol-3-yl)-1-methyl-5-(trifluoromethyl)-1H-benzo[d]imidazol-2-amine] | * * | * * |  |
| CCn1c(Nc2c[nH]c3ccc(Cl)cc23)nc2cc(OC(F)(F)F)ccc21 [Embodiment 251, N-(5-Chloro-1H-indol-3-yl)-1-ethyl-5-(trifluoromethoxy)-1H-benzo [d]imidazol-2-amine] | * * * | * * |  |
| C#CCn1c(Nc2c[nH]c3ccc(Cl)cc23)nc2cc(OC(F)(F)F)ccc21 [Embodiment 253, N-(5-Chloro-1H-indol-3-yl)-1-(prop-2-yn-1-yl)-5-(trifluoromethoxy)-1H-benzo[d]imidazole-2-amine] | * * * | * * |  |
| Cn1c(Nc2c[nH]c3ccc(Cl)cc23)nc2cc(C(F)(F)F)c(F)cc21 [Embodiment 254, N-(5-Chloro-1H-indol-3-yl)-6-fluoro-1-methyl-5-(trifluoromethyl)-1H-benzo[d]imidazol-2-amine] | * * * | * * |  |
| CNn1c(Nc2c[nH]c3ccc(Cl)cc23)nc2cc(C(F)(F)F)ccc21.Cl [Embodiment 255, N2-(5-Chloro-1H-indol-3-yl)-N1-methyl-5-(trifluoromethyl)-1H-benzo[d]imidazole-1,2-diamine hydrochloride] | * * * | * * |  |
| Cc1ccc2[nH]cc(Nc3nc4cc(C(F)(F)F)cc(F)c4n3C)c2c1 [Embodiment 256, 7-fluoro-1-methyl-N-(5-methyl-1H-indol-3-yl)-5-(trifluoromethyl)-1H-benzo[d]imidazol-2-amine] | * * * | * * |  |
| Cn1c(Nc2c[nH]c3ccc(C#N)cc23)nc2cc(C(F)(F)F)cc(F)c21 [Embodiment 257, 3-{ [7-fluoro-1-methyl-5-(trifluoro methyl)-1H-benzo[d]imidazol-2-yl]amino}-1H-indole-5-carbonitrile] | * * * | * * |  |
| CN(C)n1c(Nc2c[nH]c3ccc(Cl)cc23)nc2cc(OC(F)(F)F)ccc21 [Embodiment 258, N2-(5-Chloro-1H-indol-3-yl)-N1, N1-dimethyl-5-(trifluoromethoxy)-1H-benzo[d]imidazole-1,2-diamine] | * * * | * * |  |
| N#CCCn1c(Nc2c[nH]c3ccc(Cl)cc23)nc2cc(C(F)(F)F)ccc21 [Embodiment 259, 3-{2-[(5-chloro-1H-indol-3-yl)amino]-5-(trifluoromethyl)-1H-benzo [d]imidazol-1-yl]propanenitrile] | * * |  | 100 to 1000 |
| OCCCn1c(Nc2c[nH]c3ccc(Cl)cc23)nc2cc(C(F)(F)F)ccc21 [Embodiment 260, 3-{2-[(5-Chloro-1H-indol-3-yl)amino]-5-(trifluoromethyl)-1H-benzo [d]imidazol-1-yl]propan-1-oar] | * * |  | 100 to 1000 |
| Cn1c(Nc2c[nH]c3cc(F)c(F)cc23)nc2cc(C(F)(F)F)cc(F)c21 [Embodiment 261, N-(5,6-difluoro-1H-indol-3-yl)-7-fluoro-1-methyl-5-(trifluoromethyl)-1H-benzo[d]imidazol-2-amine] | * * * | * * |  |
| Cn1c(Nc2c[nH]c3cc(F)c(Cl)cc23)nc2cc(C(F)(F)F)ccc21 [Embodiment 262, N-(5-Chloro-6-fluoro-1H-indol-3-yl)-1-methyl-5-(trifluoromethyl)-1 H-benzo[d]imidazol-2-amine] | * * * | * * |  |
| COc1cc2c(cc1C(F)(F)F)nc(Nc1c[nH]c3ccc(Cl)cc13)n2C [Embodiment 263, N-(5-Chloro-1H-indol-3-yl)-6-methoxy-1-methyl-5-(trifluoromethyl)-1H-benzo[d]imidazol-2-amine] | * * |  | 100 to 1000 |
| Cn1c(Nc2c[nH]c3ccc(Cl)cc23)nc2cc(C(F)(F)F)cc(C#N)c21 [Embodiment 264, 2-[(5-Chloro-1H-indol-3-yl)amino]-1-methyl-5-(trifluoromethyl)-1H-benzo[d]imidazole-7-carbonitrile] | * * * |  | 100 to 1000 |
| CN(C)n1c(Nc2c[nH]c3ccc(Cl)cc23)nc2cc(Cl)ccc21 [Embodiment 265, 5-Chloro-N2-(5-chloro-1H-indol-3-yl)-N1,N1-dimethyl-1H-benzo [d]imidazole-1,2-diamine] | * * * | * * |  |
| CN(C)n1c(Nc2c[nH]c3ccc(Cl)cc23)nc2ccc(C(F)(F)F)cc21 [Embodiment 266, N2-(5-Chloro-1H-indol-3-yl)-N1, N1-dimethyl-6-(trifluoromethyl)-1H-benzo[d]imidazole-1,2-diamine] | * * |  | 100 to 1000 |
| Fc1cc(C(F)(F)F)cc2nc(Nc3c[nH]c4ccc(Cl)cc34)[nH]c12 [Embodiment 267, N-(5-Chloro-1H-indol-3-yl)-7-fluoro-5-(trifluoromethyl)-1H-benzo [d]imidazol-2-amine] | * * |  | 100 to 1000 |
